Results reported in patent US7094781B2, “Sulfamides and their use as endothelin receptor antagonists” (Actelion Pharmaceuticals Ltd., priority 2000, dated 2006).
Where two headings read alike, the source gives them in different places.

Assays:
[1] = molecular target: T1, human recombinant ETB receptor (Homo sapiens, UniProt P24530); test: Inhibition of [125I]ET-1 binding to membranes from CHO cells carrying human ETB receptors
T1 construct: expressed in transfected cells; host or cells: CHO cells (microsomal membranes)
T1 sequence (P24530 27-442): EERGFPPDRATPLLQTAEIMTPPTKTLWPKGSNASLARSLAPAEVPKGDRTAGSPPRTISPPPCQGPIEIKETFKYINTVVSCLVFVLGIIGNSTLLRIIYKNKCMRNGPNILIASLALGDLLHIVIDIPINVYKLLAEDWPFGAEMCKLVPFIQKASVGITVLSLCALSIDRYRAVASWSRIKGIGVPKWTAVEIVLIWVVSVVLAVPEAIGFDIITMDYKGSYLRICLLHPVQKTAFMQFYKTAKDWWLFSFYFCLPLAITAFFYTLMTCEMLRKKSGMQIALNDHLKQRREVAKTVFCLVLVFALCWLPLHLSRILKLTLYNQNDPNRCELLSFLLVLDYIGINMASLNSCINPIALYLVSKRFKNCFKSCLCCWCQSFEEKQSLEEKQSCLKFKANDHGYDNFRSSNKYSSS

[2] = molecular target: T2, human recombinant ETA receptor (Homo sapiens, UniProt P25101); test: Inhibition of [125I]ET-1 binding to membranes from CHO cells carrying human ETA receptors
T2 construct: expressed in transfected cells; host or cells: CHO cells (microsomal membranes)
T2 sequence (P25101 21-427): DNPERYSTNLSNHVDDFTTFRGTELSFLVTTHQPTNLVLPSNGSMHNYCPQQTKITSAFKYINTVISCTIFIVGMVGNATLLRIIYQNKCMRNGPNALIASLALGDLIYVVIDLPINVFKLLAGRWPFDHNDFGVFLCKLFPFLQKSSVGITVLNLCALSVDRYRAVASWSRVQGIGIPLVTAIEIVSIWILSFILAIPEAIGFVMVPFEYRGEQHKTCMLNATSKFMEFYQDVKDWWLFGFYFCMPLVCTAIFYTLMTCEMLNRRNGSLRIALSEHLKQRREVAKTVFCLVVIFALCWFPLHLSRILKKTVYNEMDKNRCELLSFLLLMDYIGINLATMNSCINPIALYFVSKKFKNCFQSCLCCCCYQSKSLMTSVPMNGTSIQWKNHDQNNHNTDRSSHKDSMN

[3] = molecular target: T3, ETA receptors (rat aortic rings) (Rattus norvegicus, UniProt P26684); test: Inhibition of endothelin-1-induced contraction on isolated rat aortic rings
T3 construct: The thoracic aorta or trachea were excised, dissected and cut in 3–5 mm rings; from tissue; host or cells: thoracic aorta rings of adult Wistar rats, endothelium removed
T3 sequence (P26684 21-426): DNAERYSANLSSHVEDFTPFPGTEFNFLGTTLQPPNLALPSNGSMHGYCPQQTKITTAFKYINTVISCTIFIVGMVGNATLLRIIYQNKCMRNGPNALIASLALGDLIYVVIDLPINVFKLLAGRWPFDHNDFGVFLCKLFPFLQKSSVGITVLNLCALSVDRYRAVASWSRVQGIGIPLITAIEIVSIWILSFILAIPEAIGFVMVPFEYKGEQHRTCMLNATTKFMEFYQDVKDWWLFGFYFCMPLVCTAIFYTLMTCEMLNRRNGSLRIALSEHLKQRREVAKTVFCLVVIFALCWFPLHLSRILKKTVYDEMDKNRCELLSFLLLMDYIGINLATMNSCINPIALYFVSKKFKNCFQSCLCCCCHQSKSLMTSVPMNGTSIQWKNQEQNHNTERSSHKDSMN
Method: (§1) 2) Inhibition of Endothelin-induced Contractions on Isolated Rat Aortic Rings (ETA Receptors) and Rat Tracheal Rings (ETB Receptors):
(§2) The functional inhibitory potency of the endothelin antagonists was assessed by their inhibition of the contraction induced by endothelin-1 on rat aortic rings (ETA receptors) and of the contraction induced by sarafotoxin S6c on rat tracheal rings (ETB receptors). Adult Wistar rats were anesthetized and exsanguinated. The thoracic aorta or trachea were excised, dissected and cut in 3–5 mm rings. The endothelium/epithelium was removed by gentle rubbing of the intimal surface. […] The rings were connected to force transducers and isometric tension was recorded (EMKA Technologies SA, Paris, France). The rings were stretched to a resting tension of 3 g (aorta) or 2 g (trachea). […] The functional inhibitory potency of the test compound was assessed by calculating the concentration ratio, i.e. the shift to the right of the EC50 induced by different concentrations of test compound. EC50 is the concentration of endothelin needed to get a half-maximal contraction, pA2 is the negative logarithm of the antagonist concentration which induces a two-fold shift in the EC50 value.

[4] = molecular target: T4, ETB receptors (rat tracheal rings) (Rattus norvegicus, UniProt P21451); test: Inhibition of sarafotoxin S6c-induced contraction on isolated rat tracheal rings
T4 construct: The thoracic aorta or trachea were excised, dissected and cut in 3–5 mm rings; from tissue; host or cells: tracheal rings of adult Wistar rats, epithelium removed
T4 sequence (P21451 27-442): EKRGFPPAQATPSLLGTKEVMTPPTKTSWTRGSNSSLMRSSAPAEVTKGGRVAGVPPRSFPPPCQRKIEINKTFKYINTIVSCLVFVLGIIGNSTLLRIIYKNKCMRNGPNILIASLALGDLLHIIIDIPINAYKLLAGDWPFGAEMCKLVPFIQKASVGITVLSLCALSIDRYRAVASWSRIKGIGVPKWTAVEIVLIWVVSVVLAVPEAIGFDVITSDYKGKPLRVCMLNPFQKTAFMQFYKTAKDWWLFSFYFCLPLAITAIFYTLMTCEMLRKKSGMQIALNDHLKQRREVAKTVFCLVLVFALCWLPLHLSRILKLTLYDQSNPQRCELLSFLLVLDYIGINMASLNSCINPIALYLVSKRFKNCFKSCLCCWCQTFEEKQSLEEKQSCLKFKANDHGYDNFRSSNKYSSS
Method: as §1, §2

[5] = read-out: pA2 value ETA (converted)

SMILES	IC50 [1]	IC50 [2]	Kb [3, 5]	Kb [4]	Kb ([4]; rat tracheal rings, contraction induced by sarafotoxin S6c, 10 min incubation, read-out: pA2 value ETB (converted))	Kb [3]
O=S(=O)(NCc1ccccn1)Nc1ncnc(OCCOc2ncc(Br)cn2)c1-c1ccc(Cl)cc1 [Example 18]	3.33 µM	0.0085 µM	0.00708 µM	> 10 µM		
COc1ccccc1Oc1c(NS(=O)(=O)NCc2ccccc2)nc(SC)nc1OCCO [Example 203, benzylsulfamic acid [6-(2-hydroxy-ethoxy)-5-(2-methoxy-phenoxy)-2-methylsulfanyl-pyrimidin-4-yl]-amide]			0.0204 µM		1.45 µM	
COc1ccccc1Oc1c(NS(=O)(=O)NCC2CCCCC2)nc(-c2ncccn2)nc1OCCOc1ncc(Br)cn1 [Example 133]	0.212 µM	0.0017 µM				0.0191 µM
CSc1cnc(OCCOc2ncnc(NS(=O)(=O)NCc3ccccc3)c2-c2ccc(Br)cc2)nc1 [Example 102]	0.065 µM	0.00046 µM		0.174 µM		0.00398 µM
COc1ccc(CNS(=O)(=O)Nc2nc(-c3ncccn3)nc(OC)c2Oc2ccccc2OC)cc1 [Example 51]	0.306 µM	0.0134 µM	0.282 µM			
